Patent publication US20110045027A1, “Adjuvant” (Glaxo Group Limited, priority 2005, published 2011)

Columns and labels:
mouse skin = experiment: In vivo delivery by intradermal injection and luciferase assay (pGL3CMV plasmid); design: species or system Balb/c×C3H F1 female mice; conditions: FIG. 3, OPTIMEM, 0.5:1 (w/w gemini:DNA)
Text: Plasmid pGL3CMV is a luciferase expression vector based upon pGL3 Basic, (Promega Corporation., Madison, Wis., USA), where the CMV immediate early promoter drives luciferase expression. The plasmid pGL3CMV was used in all gene expression studies in mouse skin biopsies and has been described in WO03/061636.
Gemini surfactants were mixed with plasmid DNA by drop by drop addition of the diluted gemini surfactant formulation (in OPTIMEM) to the diluted plasmid DNA formulation (in OPTIMEM) at room temperature whilst the mixture was being mixed using a Vortex mixer (Mini Vortexer, VWR). […]
Plasmid DNA was delivered into the skin of Balb/c×C3H F1 female mice. […] Groups of 8-10 animals (or 4 to 5 animals with two injection sites) were analysed for skin gene expression. […]
Skin samples were thawed to room temperature and disrupted in 500 ul of Passive Lysis Buffer™ (Promega Corporation, Madison, Wis., USA) using an IKA Labortechnic Ultra turrax T8 polytron. Luciferase enzyme activity was determined using a luciferase assay kit (Promega). […] Luciferase activity (RLU) was measured as counts per minute on the Victor 2 1420 multilabel HTS counter on the luminescence program (Wallac, Perkin Elmer). Total protein concentration was calculated by a Coomassie Plus protein assay reagent kit (Perbio) using the manufacturer's protocol. […] The absorbance was measured at 595 nm on a Molecular Devices Spectra Max 340. […]

Balb/c mice [1] = experiment: Cellular immune responses by IFN-γ / IL2 ELISPOT after immunisation with plasmid p7313iTrng; format: in vivo; conditions: Example 48; intradermal delivery, FIGS. 5 to 10
Text: Plasmid p7313iTrng, is a vector where the CMV immediate early promoter drives the expression of a fusion antigen, RNG, consisting of parts of the HIV reverse transcriptase, nef and gag genes. The plasmid p7313iTrng was used in all immune response studies in mouse (WO03/025003).
Acclimatised 6-8 week old Female Balb/c mice were maintained under general anaesthesia using an oxygen-controlled inhaled Isoflourane mask for application by intradermal injection to the pre-shaved lower back above the base of the tail. Where necessary mice were given Rimadyl (Carprofen) as an analgesic in a sub-cutaneous dose of 5 mg/Kg, diluted 1:10 and delivered at 20 μl/mouse. […]
Mice were killed by cervical dislocation and spleens were collected into ice-cold PBS. […] After two washes in PBS to remove particulate matter the concentration of cells in the single cell suspension was assessed by counting in a Guava Flow Cytometer. […] After overnight culture, IFN-γ or IL2 producing cells were visualised by application of anti-murine IFN-γ-biotin or IL2-biotin labelled antibody (Pharmingen) followed by streptavidin-conjugated alkaline phosphatase and quantitated using image analysis.
Representatives of 3 classes of gemini surfactants were assessed for their ability to induce both cellular and humoral immune responses upon delivery to mouse skin through the intradermal route. […]

Balb/c mice [2] = experiment: Humoral responses by ELISA, antigen-specific whole IgG (HIV RNG fusion protein); format: in vivo; conditions: Example 48; intradermal delivery, FIG. 11, day 14 post-boost
Protocol: Acclimatised 6-8 week old Female Balb/c mice were maintained under general anaesthesia using an oxygen-controlled inhaled Isoflourane mask for application by intradermal injection to the pre-shaved lower back above the base of the tail. Where necessary mice were given Rimadyl (Carprofen) as an analgesic in a sub-cutaneous dose of 5 mg/Kg, diluted 1:10 and delivered at 20 μl/mouse. Injections of up to 50 μl of freshly formulated DNA with or without gemini surfactant were given via BD 0.5 ml insulin syringes with 29 g needles.
The humoral response was assessed by measuring antigen-specific whole IgG antibody levels (eg. to HIV RNG fusion protein) in the serum samples collected after primary and boost immunisation. […] The amount of bound antibody was determined after 4 further washes (as above) followed by addition of TMB substrate solution (T-8540-Sigma). After 30 minutes at 20° C. protected from light, the reaction is stopped with 1M sulphuric acid and absorbance read at 450 nm. […]
Humoral responses to RNG fusion peptide (WO03/025003), as serum whole IgG, were monitored at day 14 post-boost (FIG. 11). […]
Humoral responses were also analysed in this example. The humoral responses were measured as whole serum IgG and data were collected both after a homologous prime and boost and again after a heterologous boost with NHP Adenovirus p6GRN, see FIG. 42. […]

[3] = Particle size of gemini surfactant solutions by quasi-elastic light scattering (QELS); format: physicochemical; conditions: fresh solutions stored at 4° C., particle size at bi-weekly intervals, 10-week study, FIG. 28
Protocol: All gemini surfactants were prepared from lyophilised stocks by vortex re-suspension in pure water at a stock concentration of 1 mg/ml stored at 4° C. Gemini surfactants were diluted either in pure water or were directly diluted in Optimem®1 (GIBCO Invitrogen) for immediate use. Where gemini surfactants were formulated together with other helper lipids such as DOPE, these were co-lyophilised at a 1:1, (w/w) ratio and similarly vortex re-suspended in pure water at a stock concentration of 1 mg/ml stored at 4° C.
(§1) The size of the particles formed by gemini surfactants and their complexes with plasmid DNA was measured by quasi-elastic light scattering (QELS) (Finsy, R., Advances in Colloid and Interface Science (1994) 52 (19 September):79-143; Gittings, M. R., and Saville, D. A., Colloids and Surfaces A: Physicochemical and Engineering Aspects (1998) 141: 111-117). Samples (50 μl) were analysed using a Brookhaven Instruments Corporation particle size analyser (BIC 90 Plus) following the manufacturer's instructions: 10 measurements, each consisting of 10 runs were taken per sample. […] The average particle size was automatically derived from the raw data by the instrument and expressed as the mean hydrodynamic diameter in nanometers (nm). […]
The colloidal properties of gemini surfactant solutions were monitored over time in order to analyse their apparent instability in greater detail. […]

plasmid DNA (pdpSC18) = experiment: Particle size of gemini surfactant-plasmid DNA complexes (lipoplexes) by QELS; format: physicochemical; conditions: buffers covering pH 6.5 to pH 4.5, FIG. 33
Protocol: Gemini surfactants were mixed with plasmid DNA by drop by drop addition of the diluted gemini surfactant formulation (in OPTIMEM) to the diluted plasmid DNA formulation (in OPTIMEM) at room temperature whilst the mixture was being mixed using a Vortex mixer (Mini Vortexer, VWR). The ratio of gemini surfactant to plasmid DNA was varied from 0.2:1 (w/w) to 4:1 (w/w) so that for a final volume of 50 ul per delivery, the formulation contained 10 ug of plasmid DNA with gemini surfactant at the correct ratio. Gemini: DNA mixtures or complexes were left at room temperature for 15 minutes post mixing to form and were then delivered to animals within 15 to 30 minutes. […]
as §1

Row | SMILES | gene delivery and/or expression in mouse skin versus DNA with DMRIE-C or electroporation (mouse skin) | level of cellular immune responses versus PMED at boost (Balb/c mice [1]) | level of humoral immune responses versus PMED at boost (Balb/c mice [2]) | storage time for which the solution remained stable before particle formation [3] [weeks] | pH sensitivity of lipoplexes (particle size versus pH) (plasmid DNA (pdpSC18))
1 | CCCCCCCC/C=C\CCCCCCCC(=O)NCCCN(CCCCN(CCCNC(=O)CCCCCCCCCCCCCCCCC)C(=O)[C@H](N)CCCCN)C(=O)[C@H](N)CCCCN [GSC103 D-Lys, Oleic Acid, Stearic Acid] | exception |  |  |  | 
2 | CCCCCCCC/C=C\CCCCCCCC(=O)NCCCN(CCCCN(CCCNC(=O)CCCCCCC/C=C\CCCCCCCC)C(=O)[C@@H](N)CCCCN)C(=O)[C@@H](N)CCCCN [GSC103-L-Lys] |  | comparable to those induced by PMED at boost | comparable to those induced by PMED at boost | 2 | fluctuated with falling pH
